The subject of test [1] is ZeMPCs. Description: ZeMPC competitive transplantation assay. As to conditions: co-injected into prkdc-mutant zebrafish, imaged at 7 dpt. It is filed as in vivo. The source says:
FIGS. 20A-20B show ZeMPC competitive transplantation assays results. (FIG. 20A) Experimental design of ZeMPC competitive transplantation assays using different combinations of chemical-treated or DMSO-treated ZeMPCs marked by mCherry or GFP. ZeMPCs were co-injected from mylz2-GFP and mylz2-mCherry donors into 4- to 8-months-old prkdc-mutant recipient zebrafish and imaged at 7 dpt to assess the engraftment of mylz2-mCherry (pre-transplantation treatment with DMSO) and mylz2-GFP (pre-transplantation treatment with DMSO, LPA or NFA) cells. (FIG. 20B) Engraftment efficiency of equal numbers of DMSO-treated mCherry cells vs. DMSO-treated GFP cells (left), DMSO-treated mCherry cells vs. LPA-treated GFP cells (middle) and DMSO-treated mCherry cells vs. NFA-treated GFP cells (right).
Lipids are frequently found to enhance cell migration and homeostasis in blood and muscle tissue (Cencetti et al., 2014; Lahvic et al., 2018; Li et al., 2015; Oh et al., 2016), and so it was elected to screen mainly bioactive lipids in efforts to identify compounds that enhance ZeMPCs engraftment efficiency in vivo. Myogenic progenitor cells were treated for 4 hours with one of the 188 unique lipid compounds contained in the ICCB Known Bioactives Library. […] Engraftment efficiency was measured by imaging casper recipients at 7 dpt (FIG. 18A). […]

For test [2], the system named is ZeMPCs. Description: RNA sequencing of treated ZeMPCs. In kind it is cell-based, zebrafish. The source says: (§1) To gain insight into the mechanisms through which LPA and NFA treatment might enhance donor cell engraftment in vertebrate muscle, RNA sequencing analysis were next performed in treated ZeMPCs and in mouse satellite cells. Comparison of differential gene expression in NFA-treated or LPA-treated cells to vehicle-treated cells indicated upregulation of calcium-dependent genes in response to these compounds in both ZeMPCs (FIG. 21) and mouse satellite cells (FIGS. 15A and 15B).
(§2) Isolated mouse muscle satellite cells and ZeMPCs were used to prepare RNA after in vitro chemical treatment. Total RNA was isolated by the micro RNeasy kit (QIAGEN). cDNA was prepared using SMART Seq v4 Ultra Low RNA-Seq kit for 48 reactions (Takara) and a Nextera kit was used for library construction. Sequencing data FASTQ files for samples were processed in tophat-cufflinks workflow in a Linux server operating system to output gene-level abundance estimates and statistical inference as gene-level raw counts. Those raw counts for samples were input into the cuffdiff for differential gene expression analysis. The assigned GEO accession number for the RNA sequencing data is GSE143801.

Test [3] concerns mouse satellite cells. The test can be described thus: RNA sequencing of treated mouse satellite cells. In kind it is cell-based.
Text: as §1, §2

The subject of test [4] is Zebrafish myogenic progenitor cells (ZeMPCs). Description: Limiting dilution engraftment assay (ELDA): cells treated ex vivo, transplanted into adult zebrafish, imaged at 7 dpt. It is filed as in vivo. The settings on record: for engraftment efficiency compared with DMSO/vehicle-treated cells: 0.1 μM LPA or 0.3 μM NFA; for engraftment efficiency relative to vehicle-treated controls: 5 μM LPA or 10 μM NFA; for engraftment capacity of transplanted myogenic progenitors in recipient adult zebrafish: 4 hour ex vivo chemical exposure, replicate transplantation. As to the method:
Donor cells were derived from embryos that contained a GFP cassette driven by the promoter for mylz2, a muscle-specific structural protein. Recipients were optically clear, immunocompromised adult prkdc−/− zebrafish. To perform a limiting dilution assay, three doses (n=100, 200, and 400 cells) were administered per treatment (n=10 engraftment events per treatment-dose combination). The estimated engrafting cell frequency was calculated using the Extreme Limiting Dilution Analysis (ELDA, Hu et. al. 2009), which provides the most likely estimate (MLE) of engrafting cell frequency.
Given that this group of 230 lipids is too many to be examined in mice, transplantation efficiency was instead examined via limit-dilution assays in 15 recipient zebrafish per compound after a brief (4 hour) ex vivo chemical exposure. Positive hits from this primary screening were rescreened in replicate transplantation experiments incorporating dose response testing.
Lipids are frequently found to enhance cell migration and homeostasis in blood and muscle tissue (Cencetti et al., 2014; Lahvic et al., 2018; Li et al., 2015; Oh et al., 2016), and so it was elected to screen mainly bioactive lipids in efforts to identify compounds that enhance ZeMPCs engraftment efficiency in vivo. Myogenic progenitor cells were treated for 4 hours with one of the 188 unique lipid compounds contained in the ICCB Known Bioactives Library. Compound-treated cells were then harvested and transplanted intramuscularly into both flanks of 5 different casper recipient fish, with transplants performed at each of 3 transplanted cell doses (25, 75 or 150 cells). In these studies, recipient fish received split-dose irradiation of 15 Gy at 2 days and 1 day prior to transplantation to suppress any immune responses to the transplanted cells. Engraftment efficiency was measured by imaging casper recipients at 7 dpt (FIG. 18A). […] For this secondary screening approach, cells were transplanted into prkdc^D3612ls casper fish, which are deficient in mature T and B cells, and assayed engraftment efficiency in the recipient fish 7 days post-transplantation. Two compounds were identified, lysophosphatidic acid (LPA) and niflumic acid (NFA), which increased ZeMPC engraftment efficiency in both of these assay systems (FIG. 12B).
Lipids from the ICCB Known Bioactives Library (enzolifesciences.com/BML-2840/iccb-known-bioactives-library) were diluted at a 1:100 ratio in transplantation media (zESC medium without bFGF and FBS) and added to prewashed in vitro expanded muscle cells. NFA (Cayman and Santa Cruz Biotechnology) and LPA (Cayman and Santa Cruz Biotechnology) were used for the secondary confirmation screening experiments. […] 4- to 8-month-old casper recipients received split-dose irradiation of 15 Gy each, either 2 days or 1 day before transplantation. For LDA screening, cells were transplanted into each side of 5 pre-irradiated casper recipient fish or 5 non-irradiated prkdc-mutant recipient zebrafish. At 7 dpt, the recipients were anaesthetized using a previously described method (Dang et al., 2016) and imaged using a fluorescent stereo microscope (Leica M165 FC). Successful engraftment was defined as the presence of GFP+ fibers. Variation in different experiments is caused by inherent variability in the in vitro ZeMPC derivation procedure, which results in differences in engrafting cell frequency across different derivation attempts. To mitigate the impact of such experimental variation on screening results, only LDA results for cells derived from the same cultures were compared. Comparison to a vehicle-treated experimental control was included in every transplantation experiment. Next, the chemical treated cell potency and vehicle-treated cell potency was measured using the Extreme Limiting Dilution Analysis (ELDA) software (Hu and Smyth, 2009). The ratio of the treated cell potency and vehicle-treated cell potency determine the engraftment efficiency fold increase value.

Test [5] concerns mouse satellite cells. Description: Calcium imaging in Fluo-4 AM-loaded mouse satellite cells (AUC of signal intensity). The settings on record: 1-5 μM of LPA, 2.5-10 μM of NFA; 1,500 cells/well. It is filed as cell-based. The procedure: First, to establish optimal conditions, cells were sorted by FACS into 384 well plates at 10,000, 5,000, 1,500, or 500 cells per well, with 8 replicates for each cell density. […] Cells were again incubated with Fluo4 AM for 45 minutes at 37° C. followed by imaging. Different concentrations of LPA, NFA, or both compounds combined, along with DMSO (vehicle control) and ionomycin (direct calcium ionophore), were added 60 seconds after the beginning of imaging to quantify both baseline calcium ion concentrations and calcium flux in response to the different treatment conditions. Calcium concentrations were calculated as area under the curve (AUC) of signal intensity and compared these values across different concentrations of each compound (FIG. 25A).
Satellite cells were isolated from wild-type mice (FVB/NJ) and sorted into 384 well plates in culture media. The cells were incubated overnight at 37° C. The next day, the cells were incubated with Fluo-4 AM (Thermo Fisher Sci F14201), a fluorescent calcium ion indicator, for 45 minutes at 37° C., followed by imaging of the entire plate with the FDSS 7000 ex functional drug screening system (Hamamatsu) in the BCH assay development and screening facility.

“Also recorded” adds a separate entry of the source.

As to lysophosphatidic acid [LPA], the “advantage compared to DMSO-treated control cells in competitive transplantation” value in the test on ZeMPCs [1] was approximately 2 fold. Further, the “expression of calcium-dependent genes vs vehicle-treated cells” value with ZeMPCs [2] and with mouse satellite cells [3] was “upregulation” in each case. In the test on mouse satellite cells [3], the “expression of myoblast fusion related genes, including myomaker (Tmem8c) and Ccl8” value is listed as “upregulated”. Moreover, in test [4], the “engraftment efficiency compared with DMSO/vehicle-treated cells” value was “did not change the engraftment efficiency; also recorded: did not alter the engraftment efficiency; also recorded: did not result in any change”. The results for the “engraftment efficiency compared with DMSO treated cells” value in test [4] (0.3 uM LPA) and in test [4] (15 uM NFA or 4 uM LPA) were “did not change the engraftment efficiency” and “increased engraftment efficiency”, respectively. In test [4], the “engraftment efficiency relative to vehicle-treated controls” value was determined as 2.34 times. Besides, in test [4], the “engraftment capacity of transplanted myogenic progenitors in recipient adult zebrafish” value is listed as “increasing the engraftment capacity”. Besides, the “engraftment efficiency relative to DMSO-treated cells” value is 1.11 times in test [4] (ZeMPCs treated for 1 hour), 1.72 times in test [4] (ZeMPCs treated for 2 hours) and 2.3 times in test [4] (ZeMPCs treated for 4 hours). Further, in the test on mouse satellite cells [5], the “calcium ion concentrations (AUC of signal intensity) relative to vehicle-treated controls” value is “increased significantly”.
As to `O=C(O)c1cccnc1Nc1cccc(C(F)(F)F)c1` [NFA, niflumic acid], the “advantage compared to DMSO-treated control cells in competitive transplantation” value with ZeMPCs [1] is on record as approximately 2 fold. For the same compound, the “expression of calcium-dependent genes vs vehicle-treated cells” value in the test with ZeMPCs [2] and in the test with mouse satellite cells [3] was “upregulation” each time. Besides, in test [4], the “engraftment efficiency compared with DMSO/vehicle-treated cells” value is on record as “did not change the engraftment efficiency; also recorded: did not alter the engraftment efficiency; also recorded: no difference”. Besides, the “engraftment efficiency relative to vehicle-treated controls” value in test [4] came to 2.37 times. The “engraftment efficiency compared with DMSO treated cells” value in test [4] (15 uM NFA or 4 uM LPA) was “increased engraftment efficiency”. For the same compound, in test [4], the “engraftment capacity of transplanted myogenic progenitors in recipient adult zebrafish” value is recorded as “increasing the engraftment capacity”. Besides, the “engraftment efficiency relative to DMSO-treated cells” value in test [4] (ZeMPCs treated for 1 hour) is “did not alter”; in test [4] (ZeMPCs treated for 2 hours), 2.85 times; in test [4] (ZeMPCs treated for 4 hours), 2.64 times. Besides, the “calcium ion concentrations (AUC of signal intensity) relative to vehicle-treated controls” value in the test with mouse satellite cells [5] is on record as “increased significantly”.

For the origin of these results see patent US12097174B2, “Methods and agents that enhance myogenic progenitor cell engraftment” (President and Fellows of Harvard College, priority 2018, dated 2024).
